Measurements published in patent US9598440B2, “Inhibitors of IRAK4 activity” (MERCK SHARP & DOHME CORP., priority 2012, dated 2017).

Target: IRAK4 (Homo sapiens (Human), UniProt Q9NWZ3)
Assay: Determination of IRAK4 kinase activity (IMAP fluorescence polarization, phosphorylation of fluorescent peptide substrate)
Format: biochemical
Conditions: 0.5 nM GST tagged IRAK4, 100 nM peptide substrate RP7030, 100 μM ATP, 30 minutes at 25° C.
Procedure: The kinase activity of IRAK4 is determined by its ability to catalyze the phosphorylation of a fluorescent polypeptide substrate. The extent of phosphorylation is measured using IMAP technology (Molecular Devices) where the phosphorylated fluorescent substrate binds to the large M(III)-based nanoparticles which reduces the rotational speed of the substrate and thus increases its fluorescent polarization (FP).
Procedure: A 20 μl reaction mixture contains 10 mM TriHCl, pH 7.2, 0.5 nM GST tagged IRAK4 (SignalChem), 100 nM fluorescent peptide substrate (RP7030, Molecular Devices), 100 μM ATP, 1 mM DTT, 1 mM MgCl2, and 0.01% Tween 20. The reaction is initiated by the addition of ATP. After incubation for 30 minutes at 25° C., 60 μl of Progressive IMAP Reagent (Molecular Devices) is added to stop the reaction. Change in RP7030's FP is determined by a FP reader (Analyst HT, LJL BioSystems). Analytical LCMS Conditions: • Condition A: Phenomenex Luna C18 (4.6×250 mm), 95:5 to 5:95 water:MeCN (0.05% TFA), over 10 min, hold 6 min. • Condition B: Agilent SBC (3.0×50 mm), solvent A: H20-0.1% TFA; • solvent B: ACN-0.1% TFA; GRADIENT TABLE: 0 min:10% B, 0.3 min: 10% B, 1.5 min: 95% B, 2.70 min: 95% B, 2.76 min: 10% B, stop time 3.60 min.

IRAK4, sequence (Q9NWZ3 whole entry): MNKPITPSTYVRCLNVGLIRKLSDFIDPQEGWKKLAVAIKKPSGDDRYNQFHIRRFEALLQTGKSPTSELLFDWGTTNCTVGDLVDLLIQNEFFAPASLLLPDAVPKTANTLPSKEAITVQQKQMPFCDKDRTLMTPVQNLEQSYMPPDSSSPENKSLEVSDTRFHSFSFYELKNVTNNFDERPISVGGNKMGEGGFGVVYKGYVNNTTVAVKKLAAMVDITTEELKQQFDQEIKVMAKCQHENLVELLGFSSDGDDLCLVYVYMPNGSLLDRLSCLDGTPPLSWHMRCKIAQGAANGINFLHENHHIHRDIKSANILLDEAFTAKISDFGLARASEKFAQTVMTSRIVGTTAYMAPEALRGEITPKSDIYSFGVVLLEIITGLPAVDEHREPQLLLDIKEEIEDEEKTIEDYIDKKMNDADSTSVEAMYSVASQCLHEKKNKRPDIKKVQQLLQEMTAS

Row | Structure (SMILES) | IC50 [nM]
1 | CN1CCCC(Nc2ncc(-c3nc4ccccc4s3)c(N[C@@H]3C[C@H](CO)[C@@H](O)[C@H]3O)n2)C1 (mixture of isomers) [Example 32, (1R,2S,3R,5R)-3-((5-(benzo[d]thiazol-2-yl)-2-(((RS)-1-methylpiperidin-3-yl)amino)pyrimidin-4-yl)amino)-5-(hydroxymethyl)cyclopentane-1,2-diol] | 934
2 | OC[C@H]1C[C@@H](Nc2nc(NC3CCCNC3)ncc2-c2nc3ccccc3s2)[C@H](O)[C@@H]1O (mixture of isomers) [Example 47, (1R,2S,3R,5R)-3-((5-(benzo[d]thiazol-2-yl)-2-((RS)-piperidin-3-ylamino)pyrimidin-4-yl)amino)-5-(hydroxymethyl)cyclopentane-1,2-diol] | 3270
3 | OC[C@H]1C[C@@H](Nc2nc(NC3CCOC3)ncc2-c2nc3ccccc3s2)[C@H](O)[C@@H]1O (mixture of isomers) [Example 48, (1R,2S,3R,5R)-3-((5-(benzo[d]thiazol-2-yl)-2-(((RS)-tetrahydrofuran-3-yl)amino)pyrimidin-4-yl)amino)-5-(hydroxymethyl)cyclopentane-1,2-diol] | 1580
4 | OC[C@H]1C[C@@H](Nc2nc(NC3CCCOC3)ncc2-c2nc3ccccc3s2)[C@H](O)[C@@H]1O (mixture of isomers) [Example 49, (1R,2S,3R,5R)-3-((5-(benzo[d]thiazol-2-yl)-2-(((RS)-tetrahydro-2H-pyran-3-yl)amino)pyrimidin-4-yl)amino)-5-(hydroxymethyl)cyclopentane-1,2-diol] | 1470
5 | OC[C@H]1C[C@@H](Nc2nc(NC3CCNC3)ncc2-c2nc3ccccc3s2)[C@H](O)[C@@H]1O (mixture of isomers) [Example 51, (1R,2S,3R,5R)-3-((5-(benzo[d]thiazol-2-yl)-2-((RS)-pyrrolidin-3-ylamino)pyrimidin-4-yl)amino)-5-(hydroxymethyl)cyclopentane-1,2-diol] | 1380
6 | CC(C)(O)C1C[C@@H](Nc2nc(Nc3cccc(C#N)c3)ncc2-c2nc3ccccc3s2)[C@H](O)[C@@H]1O (stereo in doubt) [Example 115, 5-(benzo[d]thiazol-2-yl)-2-((3-cyanophenyl)amino)-6-(((1R,2S,3R,4R)-2,3-dihydroxy-4-(2-hydroxypropan-2-yl)cyclopentyl)amino)pyrimidine] | 36
7 | COc1cccc(Nc2ncc(-c3nc4ccccc4s3)c(N[C@@H]3CC(C(C)(C)O)[C@@H](O)[C@H]3O)n2)c1 (stereo in doubt) [Example 117, 5-(benzo[d]thiazol-2-yl)-6-(((1R,2S,3R,4R)-2,3-dihydroxy-4-(2-hydroxypropan-2-yl)cyclopentyl)amino)-2-((3-methoxyphenyl)amino)pyrimidine] | 20
8 | Cc1cccc(Nc2ncc(-c3nc4ccccc4s3)c(N[C@@H]3CC(C(C)(C)O)[C@@H](O)[C@H]3O)n2)c1 (stereo in doubt) [Example 118, 5-(benzo[d]thiazol-2-yl)-6-(((1R,2S,3R,4R)-2,3-dihydroxy-4-(2-hydroxypropan-2-yl)cyclopentyl)amino)-2-(m-tolylamino)pyrimidine] | 16
9 | CC(C)(O)C1C[C@@H](Nc2nc(Nc3ccnc(C(F)(F)F)c3)ncc2-c2nc3ccccc3s2)[C@H](O)[C@@H]1O (stereo in doubt) [Example 120, 5-(benzo[d]thiazol-2-yl)-6-(((1R,2S,3R,4R)-2,3-dihydroxy-4-(2-hydroxypropan-2-yl)cyclopentyl)amino)-2-((2-(trifluoromethyl)pyridin-4-yl)amino)pyrimidine] | 10
10 | CC(C)(O)C1C[C@@H](Nc2nc(Nc3cccc(C(F)(F)F)c3)ncc2-c2nc3ccccc3s2)[C@H](O)[C@@H]1O (stereo in doubt) [Example 121, 5-(benzo[d]thiazol-2-yl)-6-(((1R,2S,3R,4R)-2,3-dihydroxy-4-(2-hydroxypropan-2-yl)cyclopentyl)amino)-2-((3-(trifluoromethyl)phenyl)amino)pyrimidine] | 386
11 | CC(C)(O)C1C[C@@H](Nc2nc(Nc3cc(F)cc(F)c3)ncc2-c2nc3ccccc3s2)[C@H](O)[C@@H]1O (stereo in doubt) [Example 122, 5-(benzo[d]thiazol-2-yl)-2-((3,5-difluorophenyl)amino)-6-(((1R,2S,3R,4R)-2,3-dihydroxy-4-(2-hydroxypropan-2-yl)cyclopentyl)amino)pyrimidine] | 163

More lines, now with the values ahead:

Row | IC50 [nM] | Structure (SMILES)
12 | 0.2 | Cc1cc(Nc2ncc(-c3ccc4ccccc4n3)c(N[C@@H]3CC(C(C)(C)O)[C@@H](O)[C@H]3O)n2)cc(C)n1 (stereo in doubt) [Example 111, 6-(((1R,2S,3R,4R)-2,3-dihydroxy-4-(2-hydroxypropan-2-yl)cyclopentyl)amino)-2-((2,6-dimethylpyridin-4-yl)amino)-5-(quinolin-2-yl)pyrimidine]
13 | 4 | COc1cc(Nc2ncc(-c3ccc4ccccc4n3)c(N[C@@H]3CC(C(C)(C)O)[C@@H](O)[C@H]3O)n2)ccn1 (stereo in doubt) [Example 112, 6-(((1R,2S,3R,4R)-2,3-dihydroxy-4-(2-hydroxypropan-2-yl)cyclopentyl)amino)-2-((2-methoxypyridin-4-yl)amino)-5-(quinolin-2-yl)pyrimidine]
14 | 19 | CC(C)Oc1cc(Nc2ncc(-c3nc4ccccc4s3)c(N[C@@H]3CC(C(C)(C)O)[C@@H](O)[C@H]3O)n2)ccn1 (stereo in doubt) [Example 116, 5-(benzo[d]thiazol-2-yl)-6-(((1R,2S,3R,4R)-2,3-dihydroxy-4-(2-hydroxypropan-2-yl)cyclopentyl)amino)-2-((2-isopropoxypyridin-4-yl)amino)pyrimidine]
15 | 16 | CC(C)(O)C1C[C@@H](Nc2nc(Nc3ccccc3)ncc2-c2nc3ccccc3s2)[C@H](O)[C@@H]1O (stereo in doubt) [Example 119, 5-(benzo[d]thiazol-2-yl)-6-(((1R,2S,3R,4R)-2,3-dihydroxy-4-(2-hydroxypropan-2-yl)cyclopentyl)amino)-2-(phenylamino)pyrimidine]
16 | 712 | COc1cc(Nc2ncc(-c3ccc4cccc(C)c4n3)c(N[C@@H]3CC(C(C)(C)O)[C@@H](O)[C@H]3O)n2)ccn1 (stereo in doubt) [Example 123, 6-(((1R,2S,3R,4R)-2,3-dihydroxy-4-(2-hydroxypropan-2-yl)cyclopentyl)amino)-2-((2-methoxypyridin-4-yl)amino)-5-(8-methylquinolin-2-yl)pyrimidine]
17 | 60 | COc1ccc(Nc2ncc(-c3nc4ccccc4s3)c(N[C@@H]3CC(C(C)(C)O)[C@@H](O)[C@H]3O)n2)c(OC)c1 (stereo in doubt) [Example 125, 5-(benzo[d]thiazol-2-yl)-6-(((1R,2S,3R,4R)-2,3-dihydroxy-4-(2-hydroxypropan-2-yl)cyclopentyl)amino)-2-((2,4-dimethoxyphenyl)amino)pyrimidine]
18 | 9 | COc1cc(Nc2ncc(-c3nc4ccccc4s3)c(N[C@@H]3CC(C(C)(C)O)[C@@H](O)[C@H]3O)n2)ccn1 (stereo in doubt) [Example 126, 5-(benzo[d]thiazol-2-yl)-6-(((1R,2S,3R,4R)-2,3-dihydroxy-4-(2-hydroxypropane-2-yl)cyclopentyl)amino)-2-((2-methoxypyridin-4-yl)amino)pyrimidine]
19 | 0.7 | COc1cc(Nc2ncc(-c3nc4cnccc4s3)c(N[C@@H]3CC(C(C)(C)O)[C@@H](O)[C@H]3O)n2)ccn1 (stereo in doubt) [Example 136, 6-(((1R,2S,3R,4R)-2,3-dihydroxy-4-(2-hydroxypropan-2-yl)cyclopentyl)amino)-2-((2-methoxypyridin-4-yl)amino)-5-(thiazolo[4,5-c]pyridin-2-yl)pyrimidine]
20 | 0.2 | Cc1cc(Nc2ncc(-c3nc4cnccc4s3)c(N[C@@H]3CC(C(C)(C)O)[C@@H](O)[C@H]3O)n2)cc(C)n1 (stereo in doubt) [Example 137, 6-(((1R,2S,3R,4R)-2,3-dihydroxy-4-(2-hydroxypropan-2-yl)cyclopentyl)amino)-2-((2,6-dimethylpyridin-4-yl)amino)-5-(thiazolo[4,5-c]pyridin-2-yl)pyrimidine]
21 | 0.5 | Cc1cc(Nc2ncc(-c3nc4c(C)nccc4s3)c(N[C@@H]3CC(C(C)(C)O)[C@@H](O)[C@H]3O)n2)cc(C)n1 (stereo in doubt) [Example 138, 6-(((1R,2S,3R,4R)-2,3-dihydroxy-4-(2-hydroxypropan-2-yl)cyclopentyl)amino)-2-((2,6-dimethylpyridin-4-yl)amino)-5-(4-methylthiazolo[4,5-c]pyridin-2-yl)pyrimidine]
22 | 37 | Cc1cc(Nc2cc(N[C@H]3C[C@@H](C(C)(C)O)[C@H](O)[C@@H]3O)c(-c3nc(C)cs3)cn2)cc(C)n1 (stereo in doubt) [Example 162, (1S,2R,3S,5R)-3-((2-((2,6-dimethylpyridin-4-yl)amino)-5-(4-methylthiazol-2-yl)pyridin-4-yl)amino)-5-(2-hydroxypropan-2-yl)cyclopentane-1,2-diol]
